Values after ≈ are worked out from the molar mass of the structure shown.
How the values were obtained:
Assay type in all cases: cell-based
[1] = system: Escherichia coli 1161435 parent and mutant strains B4, B26 and B35; assay: Sensitivity to leucine analogs in MH and M9 media
[2] = system: E. coli ATCC 25922 wild type and mutants; assay: MIC in M9 minimal media; conditions: Escherichia coli, read-out: MICs in M9 minimal media
Description: (§1) Spontaneous Resistance Frequency was determined in vitro for GSK2251052 and the resistance mutants in E. coli ATCC 25922, K. pneumoniae ATCC 13883, and P. aeruginosa ATCC 27853 strains were characterized. GSK2251052 was prepared as described in U.S. Pat. No. 7,816,344 (the entire contents of which are hereby incorporated by reference herein). LB broth, Mueller Hinton II broth (adjusted), and Difco noble agar were obtained from Becton Dickinson (Cockeysville, Md., USA). M9 minimal broth containing 1×M9 salt, 0.5 μg/ML thiamine, 1 mM MgSO4, 0.1 mM CaCl2, 2% glucose, was obtained from Teknova (Hollister, Calif., USA). Antibacterial agents ciprofloxacin, ceftazidime, chloramphenicol, gentamycin, kanamycin, polymixin B, tobramycin and trimethoprim, and amino acids were obtained from Sigma Chemicals (St. Louis, Mo., USA). Strains were obtained from ATCC (Manassas, Va., USA).
(§2) Susceptibility tests were performed following the recommendations for aerobic bacteria (M7-A7) from the Clinical and Laboratories Standards Institute (CLSI).
(§3) The aminoacyl-tRNA synthetase enzyme, LeuRS, ensures the correct amino acid, leucine, is attached to tRNA^Leu. The LeuRS synthetic active site is capable of aminoacylating tRNA^Leu with amino acids structural similar to leucine (norvaline, norleucine, isoleucine and methionine). These mischarged tRNA^Leu are hydrolyzed by the editing domain, thus preventing the deleterious incorporation of incorrect amino acids into the growing polypeptide. The laboratory generated mutants were further tested for their ability to grow in defined media with exogenously added amino acids. Norvaline and norleucine, structurally similar to leucine, were tested in M9 minimal media. […]

[3] = system: K. pneumoniae ATCC 13883 wild type and mutants; assay: MIC in M9 minimal media; conditions: Klebsiella pneumoniae, read-out: MICs in M9 minimal media
Description: as §1, §2, §3

[4] = system: P. aeruginosa ATCC 27853 wild type and mutants; assay: MIC in M9 minimal media; conditions: Pseudomonas aeruginosa, read-out: MICs in M9 minimal media
Description: as §1, §2, §3

[5] = system: E. coli ATCC 25922 wild type and mutants; assay: MIC, wild type and GSK2251052 resistant mutants; conditions: Escherichia coli
Description: as §1, §2
(§4) Laboratory generated mutants resistant to GSK2251052 contain mutations in the editing domain of LeuRS. Six to ten GSK2251052 resistant colonies of E. coli ATCC 25922, K. pneumoniae ATCC 13883 and P. aeruginosa ATCC 27853 were selected for further analysis and their MICs to GSK2251052 were determined (Table 4-7).

[6] = system: K. pneumoniae ATCC 13883 wild type and mutants; assay: MIC, wild type and GSK2251052 resistant mutants; conditions: Klebsiella pneumoniae
Description: as §1, §2, §4

[7] = system: P. aeruginosa ATCC 27853 wild type and mutants; assay: MIC, wild type and GSK2251052 resistant mutants; conditions: Pseudomonas aeruginosa
Description: as §1, §2, §4

[8] = system: P. aeruginosa; assay: In vitro activity against P. aeruginosa clinical isolates; conditions: P. aeruginosa, 2,008 clinical isolates; GSK2251052 based on potential susceptible breakpoint of ≦4 μg/mL
Description: GSK2251052 was tested for activity against P. aeruginosa, and its activity was compared to other antibiotics of known activity. The results are shown below in Tables 2a and 2b. Of 2,008 clinical isolates tested (from 2009-2010 subjects, of which 40% were from North America) greater than 90% were susceptible to GSK2251052 based on a potential susceptible breakpoint of ≦4 μg/mL.

Compound	MIC (sensitivity to leucine analogs) ([1]; 1161435 Parent, M9)	MIC (sensitivity to leucine analogs) ([1]; 1161435 Parent, MH)	MIC (sensitivity to leucine analogs) ([1]; B4 (P339L), M9)	MIC (sensitivity to leucine analogs) ([1]; B4 (P339L), MH)	MIC (sensitivity to leucine analogs) ([1]; B26 (R334H), M9)	MIC (sensitivity to leucine analogs) ([1]; B26 (R334H), MH)	MIC (sensitivity to leucine analogs) ([1]; B35 (D251N), M9)	MIC (sensitivity to leucine analogs) ([1]; B35 (D251N), MH)	further results
CSCC[C@H](N)C(=O)O [L-Methionine]	> 128 µg/mL	> 128 µg/mL	> 128 µg/mL	> 128 µg/mL	> 128 µg/mL	> 128 µg/mL	> 128 µg/mL	> 128 µg/mL	–
CC[C@H](C)[C@H](N)C(=O)O [L-Isoleucine]	> 128 µg/mL	> 128 µg/mL	> 128 µg/mL	> 128 µg/mL	> 128 µg/mL	> 128 µg/mL	> 128 µg/mL	> 128 µg/mL	–
CC(CC(N)C(=O)O)C(F)(F)F (racemic) [5,5,5-Trifluoro-DL-Leucine]	128 µg/mL	> 128 µg/mL	128 µg/mL	> 128 µg/mL	64 µg/mL	> 128 µg/mL	64 µg/mL	> 128 µg/mL	–
CC(C)[C@H](N)C(=O)O [L-Valine]	> 128 µg/mL	> 128 µg/mL	> 128 µg/mL	> 128 µg/mL	> 128 µg/mL	> 128 µg/mL	> 128 µg/mL	> 128 µg/mL	–
CN(C)CC(N)C(=O)O.Cl.Cl (racemic) [4-Aza-DL-Leucine dihydrochloride]	64 µg/mL	> 128 µg/mL	64 µg/mL	> 128 µg/mL	64 µg/mL	> 128 µg/mL	32 µg/mL	> 128 µg/mL	–
C=CCC(N)C(=O)O (racemic) [DL-2-Allylglycine]	16 µg/mL	> 128 µg/mL	16 µg/mL	> 128 µg/mL	16 µg/mL	> 128 µg/mL	32 µg/mL	> 128 µg/mL	–
CC(=O)CC(N)C(=O)O (racemic) [DL-oxonorvaline]	128 µg/mL	> 256 µg/mL	64 µg/mL	> 256 µg/mL	64 µg/mL	> 256 µg/mL	128 µg/mL	> 256 µg/mL	–
CCCC[C@H](N)C(=O)O [Norleucine, L-Norleucine]	32 µg/mL	> 128 µg/mL	16 µg/mL	> 128 µg/mL	8 µg/mL	> 128 µg/mL	16 µg/mL	> 128 µg/mL	MIC ([2]; ATCC25922, E 101(leuRS Y246H)): 2 µg/mL (≈ 15.2 µM); MIC ([2]; ATCC25922, E 102(leuRS D345G)): 4 µg/mL (≈ 30.5 µM); MIC ([2]; ATCC25922, E 107(leuRS G229S)): 4 µg/mL (≈ 30.5 µM); MIC ([2]; ATCC25922, E. coli ATCC25922): 4 µg/mL (≈ 30.5 µM); MIC ([3]; ATCC13883, K 104(leuRS D345Y)): 16 µg/mL (≈ 122 µM); MIC ([3]; ATCC13883, K 105(leuRS G229R)): 32 µg/mL (≈ 244 µM); MIC ([3]; ATCC13883, K 107(leuRS S227F)): 64 µg/mL (≈ 488 µM); MIC ([3]; ATCC13883, K 108(leuRS T248P)): 64 µg/mL (≈ 488 µM); MIC ([3]; ATCC13883, K 110(leuRS V338L)): > 64 µg/mL; MIC ([3]; ATCC13883, Klebsiella pneumoniae ATCC13883): 32 µg/mL (≈ 244 µM); MIC ([4]; ATCC27853, P 101 (leuRS T256P)): > 64 µg/mL; MIC ([4]; ATCC27853, P 106 (leuRS V342M)): > 64 µg/mL; MIC ([4]; ATCC27853, P 108 (leuRS T252P)): > 64 µg/mL; MIC ([4]; ATCC27853, P. aeruginosa ATCC27853): > 64 µg/mL; sensitivity of the mutants ([1]; mutant strains in M9 minimal media): some sensitivity
C[C@@H](O)[C@H](N)C(=O)O [L-Threonine]	> 128 µg/mL	> 128 µg/mL	> 128 µg/mL	> 128 µg/mL	> 128 µg/mL	> 128 µg/mL	> 128 µg/mL	> 128 µg/mL	–
NC[C@H]1O[C@H](O[C@H]2[C@H](O)[C@@H](O[C@H]3O[C@H](CO)[C@@H](O)[C@H](N)[C@H]3O)[C@H](N)C[C@@H]2N)[C@H](O)[C@@H](O)[C@@H]1O [Kanamycin]	–	–	–	–	–	–	–	–	MIC ([5]; ATCC25922, E wt, read-out: MICs): 4 µg/mL (≈ 8.26 µM); MIC ([5]; ATCC25922, read-out: MICs, mutant E 101): 4 µg/mL (≈ 8.26 µM); MIC ([5]; ATCC25922, read-out: MICs, mutant E 102): 4 µg/mL (≈ 8.26 µM); MIC ([5]; ATCC25922, read-out: MICs, mutant E 107): 8 µg/mL (≈ 16.5 µM); MIC ([6]; ATCC13883, K wt., read-out: MICs): 2 µg/mL (≈ 4.13 µM); MIC ([6]; ATCC13883, read-out: MICs, mutant K 104): 2 µg/mL (≈ 4.13 µM); MIC ([6]; ATCC13883, read-out: MICs, mutant K 105): 2 µg/mL (≈ 4.13 µM); MIC ([6]; ATCC13883, read-out: MICs, mutant K 107): 2 µg/mL (≈ 4.13 µM); MIC ([6]; ATCC13883, read-out: MICs, mutant K 108): 2 µg/mL (≈ 4.13 µM); MIC ([6]; ATCC13883, read-out: MICs, mutant K 110): 1 µg/mL (≈ 2.06 µM); MIC ([7]; ATCC27853, P wt., read-out: MICs): > 64 µg/mL; MIC ([7]; ATCC27853, read-out: MICs, mutant P 101): > 64 µg/mL; MIC ([7]; ATCC27853, read-out: MICs, mutant P106): > 64 µg/mL; MIC ([7]; ATCC27853, read-out: MICs, mutant P108): > 64 µg/mL
NCC[C@H](O)C(=O)N[C@@H]1C[C@H](N)[C@@H](O[C@H]2O[C@H](CN)[C@@H](O)[C@H](O)[C@H]2O)[C@H](O)[C@H]1O[C@H]1O[C@H](CO)[C@@H](O)[C@H](N)[C@H]1O [Amikacin]	–	–	–	–	–	–	–	–	% susceptible [8]: 90.2%
Colistin	–	–	–	–	–	–	–	–	% susceptible [8]: 62.3%
NC(CC1CCCC1)C(=O)O (racemic) [3-Cyclopentyl-DL-Alanine]	> 128 µg/mL	> 128 µg/mL	> 128 µg/mL	> 128 µg/mL	> 128 µg/mL	> 128 µg/mL	> 128 µg/mL	> 128 µg/mL	–
